In patent publication US20250177366A1, “COMPOSITIONS AND METHODS FOR ALLEVIATING PAIN AND REDUCING ADVERSIVENESS OF STIMULI” (UNIVERSITY OF WASHINGTON, priority 2021, published 2025):

Assays:
larval zebrafish [1] = assay: Light/dark preference (phototaxis) assay; assay type: in vivo, Zebrafish (Danio rerio); details: for light/dark preference: last two minutes of each trial, last four trials
Procedure: Following this, whether the effects of AS1 were restricted to somatosensation or were generalizable to other aversive stimuli were tested. Thus, the effects of AS1 on light/dark preference were tested. Zebrafish larvae prefer white light environments to dark environments and this preference is inhibited by anxiolytics, analagous to studies in rodents (Lau et al., Proc. Natl. Acad. Sci. U.S.A 2011; 108:2581-2586; Burgess et al., Curr. Biol. 2010; 20:381-386). To measure light/dark preference, larval zebrafish were placed in a square arena and given the choice between a bright white light and total darkness, and the number of larvae on each side was quantified at 30 second intervals. Five 4-minute trials were performed, where the light and dark sides of the arena were reversed between trials. […] Given the precise control over stimulus luminosity in this assay, the effects of altering the intensity of the dark stimulus were explored next. In this gradient version of the phototaxis assay, larval zebrafish were given the choice between a bright white environment and one of six potential shades of darkness, ranging from light gray to solid black. […] This implies that the valence of non-painful noxious stimuli is precisely encoded in an intensity-dependent manner, and that AS1 exerts its effects in proportion to the intensity of the stimulus.
Light/dark preference (phototaxis) assay. In the light/dark preference assay, randomly-selected 6 dpf larval zebrafish (N of 30 to 40) were carefully pipetted onto a 10 cm square petri dish using a 10 mL pipette pump equipped with a glass wide-bored Pasteur pipet. As much E2 media as possible was carefully removed using the same pipet. For single incubation experiments, 30 mL of 1× solutions of the control or test chemical was added to each petri dish, and fish were incubated for 10 minutes at 28.5° C. For double incubation experiments, 15 mL of 1× solutions containing control (DMSO) or test chemicals was added to the larvae-containing petri dish. Following a ten-minute incubation period, 15 mL of the second incubation solution (1× control or test chemical +/−2× AS1) was added to the petri dish, and the fish were incubated for a second ten minute block. The final concentration of DMSO in all solutions was 1%. In all double-incubation experiments, the final concentration of AS1 was 2.5 μM. These petri dishes were then positioned over a horizontally-oriented computer monitor displaying a PowerPoint presentation. For standard light/dark preference assays, a blank white slide was initially presented for one minute, after which the presentation would automatically advance to a slide in which half of the display was black. The petri dish with larvae was positioned such that exactly half was directly over the dark side, and the other half was directly over the light side. After four minutes, the presentation automatically advanced to a slide in which the black and white halves switched places. A total of five four-minute trials, with the dark/light halves automatically switching position between trials, were recorded. For the gradient phototaxis assay, experiments were performed identically, except that the “dark” half of the powerpoint presentation was one of six shades of gray.
In all experiments, an initial still frame of video was taken during the minute where the blank slide was presented in order to quantify the total number of fish in the experiment. Following this, still frames were taken at 30 second intervals for each trial ([…]), and the number of fish present in the light half of the arena were counted. To generate the graphs that looked at swimming patterns over time in a trial (e.g., FIG. 3D), the average percentage of fish in the light at each time point (T=0, T=30, etc.) was calculated across all five trials. […]

larval zebrafish [2] = assay: Thermal preference assay (28.5° C. vs 37.5° C.), non-sensitized; assay type: in vivo, Zebrafish (Danio rerio)
Procedure: Thermal preference assay. […] Once an entire plate was loaded with fish, the appropriate incubation solution was added. […] Following incubation in all experiments, the choice testing plate was transported to a dual solid-state heat/cool plate (AHP-1200° C. P; Teca) and centered such that half of each arena was positioned over each side of the heat/cool plate. […] Locomotor behavior was recorded using a Canon high-definition video camcorder suspended at a fixed position above the choice testing plate. Each trial was four minutes in duration.
For single-incubation assays (e.g. testing single chemicals), larval zebrafish were caught in 100 μL E2 media and 100 μL of the control (2% DMSO) or test chemical at 2× concentration was added to each well to achieve the final desired concentration. […] The final DMSO concentration in all solutions was 1%.

[3] = 28.5 vs 37.5° C., dose-response 0-5 μM

For `CC(C)c1ccc(C(=O)Nc2ccncc2)cc1` [AS1, 4-propan-2-yl-N-pyridin-4-ylbenzamide], the light/dark preference (larval zebrafish [1]; 1 μM AS1) was “significantly prefer the light side of the arena”, the “gradient phototaxis: choice between bright white (shade 1) and darker shades 2-7” value (larval zebrafish [1]; 2.5 μM AS1) was “increasingly prefer the contrasting dark shade” and the light/dark preference (larval zebrafish [1]; 2.5 μM AS1) was “significantly prefer the dark”. The “light/dark preference, dose dependence” value (larval zebrafish [1]; AS1-treated vs vehicle-treated larvae) was “reversed light/dark preference in a dose-dependent manner”, the “zone-dependent locomotor activity (swimming velocity)” value (larval zebrafish [2]; 28.5 vs 37.5° C. zones, compared to vehicle-treated larvae) was “inverted zone-dependent locomotor activity” and the “concentration that eliminates preference for either zone” value (larval zebrafish [2]; [3]) was 1.25 µM. For the same compound, the “concentrations that induce preference for the 37.5° C. zone” value (larval zebrafish [2]; [3]) was over 2.5 µM, the “preference in acute heat aversion” value (larval zebrafish [2]; 28.5° vs 37.5° C., 5 μM AS1 (highest dose)) was “evoked strong preference for the nociceptive stimulus” and the “Reverses 28.5° C. Choice?” value (larval zebrafish [2]; temperature preference 28.5° C. vs 37.5° C., larval zebrafish) was “Yes”.
